Data as given in ChEMBL document CHEMBL4002565, “Synthesis, biological evaluation and in silico molecular modeling of pyrrolyl benzohydrazide derivatives as enoyl ACP reductase inhibitors” (Eur J Med Chem, 2017).
Converted amounts (≈) assume the structure as drawn.

Key:
Escherichia coli = assay: Antibacterial activity against Escherichia coli after 18 hrs by broth microdilution method; type: functional
[1] = tested on: Mycobacterium tuberculosis; assay: Antitubercular activity against Mycobacterium tuberculosis H37Rv after 5 days by microplate Alamar blue assay; type: functional; conditions: 120 h
Staphylococcus aureus = assay: Antibacterial activity against Staphylococcus aureus after 18 hrs by broth microdilution method; type: functional
[2] = tested on: Mycobacterium tuberculosis; assay: Inhibition of Mycobacterium tuberculosis His6-tagged wild type InhA expressed in Escherichia coli BL21 at 50 uM using DDCoA as substrate relative to control
A549 = assay: Cytotoxicity against human A549 cells by MTT assay; type: cell-based

| SMILES | MIC (Escherichia coli) | MIC [1] | MIC (Staphylococcus aureus) | inhibition [2] | IC50 (A549) |
| --- | --- | --- | --- | --- | --- |
| O=C(NNC(=O)c1ccccc1Br)c1ccc(-n2cccc2)cc1 | 3.12 µg/mL (≈ 8.13 µM) | 3.12 µg/mL (≈ 8.13 µM) | 6.25 µg/mL (≈ 16.3 µM) |  |  |
| O=C(NNC(=O)c1cccc([N+](=O)[O-])c1)c1ccc(-n2cccc2)cc1 | 25 µg/mL (≈ 71.4 µM) | 25 µg/mL (≈ 71.4 µM) | 50 µg/mL (≈ 143 µM) |  |  |
| Nc1cccc(C(=O)NNC(=O)c2ccc(-n3cccc3)cc2)c1 | 25 µg/mL (≈ 78 µM) | 25 µg/mL (≈ 78 µM) | 50 µg/mL (≈ 156 µM) |  |  |
| O=C(NNC(=O)c1ccc(Cl)cc1Cl)c1ccc(-n2cccc2)cc1 | 3.12 µg/mL (≈ 8.35 µM) | 3.12 µg/mL (≈ 8.35 µM) | 12.5 µg/mL (≈ 33.4 µM) |  |  |
| Nc1ccc(C(=O)NNC(=O)c2ccc(-n3cccc3)cc2)cc1 | 12.5 µg/mL (≈ 39 µM) | 12.5 µg/mL (≈ 39 µM) | 25 µg/mL (≈ 78 µM) |  |  |
| O=C(NNC(=O)c1ccc([N+](=O)[O-])cc1)c1ccc(-n2cccc2)cc1 | 12.5 µg/mL (≈ 35.7 µM) | 12.5 µg/mL (≈ 35.7 µM) | 25 µg/mL (≈ 71.4 µM) | 22% | 96 µM |
| O=C(NNC(=O)c1cccc(Cl)c1)c1ccc(-n2cccc2)cc1 | 3.12 µg/mL (≈ 9.2 µM) | 6.25 µg/mL (≈ 18.4 µM) | 12.5 µg/mL (≈ 36.8 µM) |  |  |
| Nc1ccccc1C(=O)NNC(=O)c1ccc(-n2cccc2)cc1 | 12.5 µg/mL (≈ 39 µM) | 12.5 µg/mL (≈ 39 µM) | 25 µg/mL (≈ 78 µM) |  |  |
| O=C(NNC(=O)c1ccccc1Cl)c1ccc(-n2cccc2)cc1 | 6.25 µg/mL (≈ 18.4 µM) | 3.12 µg/mL (≈ 9.2 µM) | 12.5 µg/mL (≈ 36.8 µM) |  |  |
| O=C(NNC(=O)c1ccc(-n2cccc2)cc1)c1ccc(Br)cc1 | 3.12 µg/mL (≈ 8.13 µM) | 3.12 µg/mL (≈ 8.13 µM) | 6.25 µg/mL (≈ 16.3 µM) | 38% | 40.2 µM |
| CC(=O)c1cccc(C(=O)NNC(=O)c2ccc(-n3cccc3)cc2)c1 | 12.5 µg/mL (≈ 36 µM) | 12.5 µg/mL (≈ 36 µM) | 25 µg/mL (≈ 72 µM) | 31% | 79.2 µM |
| Cc1ccccc1C(=O)NNC(=O)c1ccc(-n2cccc2)cc1 | 12.5 µg/mL (≈ 39.1 µM) | 12.5 µg/mL (≈ 39.1 µM) | 25 µg/mL (≈ 78.3 µM) | 12% | 196 µM |
| Cc1ccc(C(=O)NNC(=O)c2ccc(-n3cccc3)cc2)cc1 | 6.25 µg/mL (≈ 19.6 µM) | 12.5 µg/mL (≈ 39.1 µM) | 25 µg/mL (≈ 78.3 µM) |  |  |
| Cc1cccc(C(=O)NNC(=O)c2ccc(-n3cccc3)cc2)c1 | 12.5 µg/mL (≈ 39.1 µM) | 12.5 µg/mL (≈ 39.1 µM) | 50 µg/mL (≈ 157 µM) | 29% | 196 µM |
| O=C(NNC(=O)c1ccc(-n2cccc2)cc1)c1ccc(O)cc1 | 12.5 µg/mL (≈ 38.9 µM) | 12.5 µg/mL (≈ 38.9 µM) | 25 µg/mL (≈ 77.8 µM) | 29% | 96 µM |
| CO[C@H]1/C=C/O[C@@]2(C)Oc3c(C)c(O)c4c(O)c(c(/C=N/N5CCN(C)CC5)c(O)c4c3C2=O)NC(=O)/C(C)=C\C=C\[C@H](C)[C@H](O)[C@@H](C)[C@@H](O)[C@@H](C)[C@H](OC(C)=O)[C@@H]1C [RIFAMPIN] |  | 0.4 µg/mL (≈ 0.486 µM) |  |  |  |
| O=C(O)c1cn(C2CC2)c2cc(N3CCNCC3)c(F)cc2c1=O [CIPROFLOXACIN] |  |  | 0.15 µg/mL (≈ 0.453 µM) |  |  |
| O=C(NNC(=O)c1ccc(-n2cccc2)cc1)c1ccc(F)cc1 | 3.12 µg/mL (≈ 9.67 µM) | 6.25 µg/mL (≈ 19.3 µM) | 6.25 µg/mL (≈ 19.3 µM) | 35% | 194 µM |
| CC[C@@H](CO)NCCN[C@@H](CC)CO [ETHAMBUTOL] |  | 0.5 µg/mL (≈ 2.45 µM) |  |  |  |
| O=C(NNC(=O)c1ccc(-n2cccc2)cc1)c1ccccc1 | 25 µg/mL (≈ 81.9 µM) | 50 µg/mL (≈ 164 µM) | 50 µg/mL (≈ 164 µM) | 13% | 248 µM |
| COc1ccc(C(=O)NNC(=O)c2ccc(-n3cccc3)cc2)cc1 | 25 µg/mL (≈ 74.5 µM) | 12.5 µg/mL (≈ 37.3 µM) | 25 µg/mL (≈ 74.5 µM) | 13% | 244 µM |
| Oc1cc(Cl)ccc1Oc1ccc(Cl)cc1Cl |  |  |  | > 99% |  |
| O=C(NNC(=O)c1ccc(-n2cccc2)cc1)c1ccc(Cl)cc1 | 3.12 µg/mL (≈ 9.2 µM) | 3.12 µg/mL (≈ 9.2 µM) | 6.25 µg/mL (≈ 18.4 µM) | 36% | 40.2 µM |
| CCn1cc(C(=O)O)c(=O)c2cc(F)c(N3CCNCC3)cc21 [NORFLOXACIN] | 4 µg/mL (≈ 12.5 µM) |  | 2.02 µg/mL (≈ 6.33 µM) |  |  |
